This is an account of results in patent US10131656B2, “Organic thin film transistor, method of manufacturing organic thin film transistor, organic thin film transistor material, organic thin film transistor composition, organic semiconductor film, and compound” (FUJIFILM Corporation, priority 2015, dated 2018).

This data set is described as follows: Evaluation of solubility to organic solvent (saturated solubility at room temperature). The class given is physicochemical. The settings on record: room temperature (25° C.); for Solubility to organic solvent Solubility (4): saturated solubility in N,N-dimethylformamide; for Solubility to organic solvent Solubility (2): saturated solubility in chloroform; for Solubility to organic solvent Solubility (3): saturated solubility in tetrahydrofuran; for Solubility to organic solvent Solubility (1): saturated solubility in toluene. The protocol: 2 mg of each example compound and comparative compound obtained above were weighed, and the saturated solubility (mass %) at room temperature (25° C.) was calculated from the volume and the specific gravity of toluene, chloroform, tetrahydrofuran, and N,N-dimethylformamide. Those having 2 mass % or greater were as set as “A”, those having 1 mass % or greater and less than 2 mass % were set as “B”, those having 0.1 mass % or greater and less than 1 mass % were set as “C”, and those having less than 0.1 mass % were set as “D”. Saturated solubility (hereinafter also referred to as solubility) of each compound in toluene, chloroform, tetrahydrofuran, and N,N-dimethylformamide was presented as Solubility (1) to (4), in the evaluation results of a first table.

`S=c1c2ccc3c4ccc5c(=S)n(C6CCCCC6)c(=S)c6cc7sc8cc(c(=S)n1C1CCCCC1)c2c3c8c7c4c56` [Example Compound 3]: the “Solubility to organic solvent Solubility (4)” value was “B (those having 1 mass % or greater and less than 2 mass % were set as “B”)”; the “Solubility to organic solvent Solubility (2)” value is “B (those having 1 mass % or greater and less than 2 mass % were set as “B”)”; the “Solubility to organic solvent Solubility (3)” value was “B (those having 1 mass % or greater and less than 2 mass % were set as “B”)”; the “Solubility to organic solvent Solubility (1)” value was “B (those having 1 mass % or greater and less than 2 mass % were set as “B”)”.
For the compound `CCCCCCCCCCC(CCCCCCCC)CCn1c(=O)c2ccc3c4ccc5c(=O)n(CCC(CCCCCCCC)CCCCCCCCCC)c(=O)c6cc7sc8cc(c1=O)c2c3c8c7c4c56` (centres unmarked) [Comparative Compound 1], the “Solubility to organic solvent Solubility (4)” value was “B (those having 1 mass % or greater and less than 2 mass % were set as “B”)”; the “Solubility to organic solvent Solubility (2)” value was “A (Those having 2 mass % or greater were as set as “A”)”; the “Solubility to organic solvent Solubility (3)” value was “A (Those having 2 mass % or greater were as set as “A”)”; the “Solubility to organic solvent Solubility (1)” value is “B (those having 1 mass % or greater and less than 2 mass % were set as “B”)”.
